No end group written: not given here.
Assays:
[1] = molecular target: T1, I-HBD (Homo sapiens, UniProt Q9NP59); assay: Competition with 125I-labeled hepcidin on HBD-coated 96-well plate; assay type: binding; conditions: 96-well plate, 0, 50, 100, 500 ng hepcidin, room temperature, 4 hours
T1 construct: made in house; host or cells: chemical synthesis
Method: In accordance with the invention, HBD can be used in an assay system to determine levels of hepcidin in a test sample. Accordingly, unlabeled HBD is immobilized on a solid substrate. HBD peptides were immobilized by covalently attaching them to a 96-well plate. Immobilization was performed using Reacti-Bind Amine-binding 96-well plates (Pierce), following the manufacturer's instructions. […] The plates were incubated at room temperature overnight. The peptide solution was then removed from the wells and a protein blocking buffer, such as dry milk in phosphate buffer saline, was added to each well and allowed to sit for two hours at 37° C. The plates were then washed with warm washing buffer to remove unbound material. HBD-coated plates were used in an assay to detect hepcidin as follows: […] The plate was incubated at room temperature for 4 hours. […] (FIG. 7)

[2] = tested on: E. coli; assay: Binding of hepcidin to E. coli; conditions: low temperature hepcidin dimer; preliminary study
Method: The five amino terminal amino acids of hepcidin were previously shown to be critical for binding of hepcidin to Fpn (7). […] Hepcidin is amphipathic and it is hypothesized that the hydrophobic surface of hepcidin monomers are interacting at 4° C. to form a dimer. Hepcidin, like other defensins, interacts through its hydrophobic surface with bacterial membranes (11).

[3] = molecular target: T2, I-HBD (hepcidin binding domain of ferroportin) (Homo sapiens, UniProt Q9NP59); assay: Competition with 125I-hepcidin for binding to I-HBD beads
T2 construct: made in house; host or cells: chemical synthesis
Method: FIGS. 2A-C illustrates that the binding of ^125I-hepcidin to HBD is specific and temperature dependent. In FIG. 2A peptides (HBD, scrambled-HBD or mutant (C326Y HBD) were conjugated to beads and ^125I-hepcidin was added to the bead-immobilized peptides (I-HBD) for 18 hours at 37° C. (black bars) or 4° C. (grey bars). The beads were washed and the amount of ^125I-hepcidin bound to the I-HBD was determined. In FIG. 2B a sub saturating concentration of ^125I-hepcidin (0.6 μg/ml) was incubated with I-HBD for 18 hours at 37° C. in the presence or absence of known concentrations of either hepcidin 25 (Hep 25-open circles) or hepcidin 25 synthesized with a tyrosine substitution at position M21 (Y-Hep 25) and the amount of radioactivity bound to the I-HBD determined. In FIG. 2C sub saturating levels of ^125I-hepcidin were incubated with I-HBD at different temperatures.
The binding of ^125I-hepcidin could be reduced by addition of native non-radioactive hepcidin with an apparent K of approximately 200 nM (FIG. 2B). There was no binding of ^125I-hepcidin to I-HBD at 4° C. and ^125I-hepcidin bound to I-HBD at 37° C. was released when subsequently placed at 4° C. (data not shown).
HBD peptides were immobilized by covalently attaching them to agarose beads. […] The fluid was removed and the radioactivity bound to beads was determined by gamma counting (Perkin/Elmer).

[4] = Solubility of the peptide; assay type: physicochemical; conditions: two arginines added at amino and carboxyl terminals
Method: Peptides were synthesized at the DNA/Peptide Core Facility, University of Utah, Salt Lake City, Utah. The peptides were synthesized with two arginines added at the amino and carboxyl terminals. […] Microscope analysis was carried out using an Olympus BX51 microscope (Olympus, Tokyo, Japan). Images were acquired using Picture Frame 2.5 software (Olympus America, East Muskogee, Okla.). All experiments were repeated a minimum of 5 times.

| Compound | competition with 125I-labeled hepcidin for binding to I-HBD [1] | binding to E. coli [2] | binding to HBD / I-HBD [3] | solubility of the peptide [4] |
| --- | --- | --- | --- | --- |
| CC[C@H](C)[C@@H]1NC(=O)[C@@H](NC(=O)[C@@H](NC(=O)[C@@H]2CCCN2C(=O)[C@H](Cc2ccccc2)NC(=O)[C@H](Cc2c[nH]cn2)NC(=O)[C@@H](NC(=O)[C@@H](N)CC(=O)O)[C@@H](C)O)[C@@H](C)CC)CSSC[C@@H](C(=O)N[C@@H](CCCCN)C(=O)N[C@H](C(=O)O)[C@@H](C)O)NC(=O)[C@@H]2CSSC[C@@H]3NC(=O)[C@@H]4CSSC[C@H](NC(=O)[C@H](Cc5ccccc5)NC1=O)C(=O)N[C@@H](CSSC[C@H](NC(=O)[C@H](CCCCN)NC(=O)[C@H](CO)NC(=O)[C@H](CCCNC(=N)N)NC(=O)[C@H](Cc1c[nH]cn1)NC3=O)C(=O)NCC(=O)N[C@@H](CCSC)C(=O)N2)C(=O)NCC(=O)N4 [hepcidin] | able to compete for binding to I-HBD | cannot bind to E. coli | does bind | – |
| RRFDCITTGYAYTQGLSGSILSRR [HBD wt] | – | – | – | increased the solubility |

From US8530619B2, “Identification of the hepcidin binding site on ferroportin” (University of Utah Research Foundation, priority 2007, dated 2013)
